Measured values taken from patent US20110172217A1, “RING-FUSED MORPHOLINE DERIVATIVE HAVING PI3K-INHIBITING ACTIVITY” (Shionogi & Co., Ltd., priority 2008, published 2011).

Legend:
[1] = Solubility test in artificial intestinal juice pH 6.8; assay type: physicochemical; settings: kinetic from dmso stock, artificial intestinal juice pH 6.8, 1% DMSO, 25° C.
Experimental: The solubility of a compound was determined under a condition in which 1% DMSO was added. 10 mmol/L compound solution was prepared using DMSO, and then 6 μL of the compound solution was added to 594 μL of artificial intestinal juice in pH 6.8 (to 250 mL of 0.2 mol/L potassium dihydrogen phosphate reagent solution was added 118 mL of 0.2 mol/L NaOH reagent solution and water to provide a final volume of 1000 mL). After standing at 25° C. for 16 hours, the mixed solution was filtered with suction. The filtrate was diluted twice with methanol/water (1/1), and then a concentration in the filtration was measured with HPLC or LC/MS/MS by the absolute calibration method.

[2] = biological target: T1, human ether-a-go-go related gene (hERG) channel (Homo sapiens, UniProt Q12809); test: hERG test, whole-cell patch-clamp, IKr; assay type: cell-based; settings: 1 μmol/L compound; HEK293 cell expressing hERG
T1 construct: expressed in transfected cells; host or cells: HEK293
Source text: For the purpose of risk evaluation of QT interval extension of electrocardiogram, the activity on delayed rectification K^+ current (IKr), which plays an important role in a cardiac ventricle repolarization process, was examined using the HEK293 cell that was made to express human ether-a-go-go related gene (hERG) channel.
Using an automatic patch-clamp system (PatchXpress 7000A, Axon Instruments Inc.), by a whole-cell patch-clamp method, after the cell was maintained at a membrane potential of −80 mV, IKr induced upon applying depolarizing stimulation of +50 mV for 2 seconds and further applying repolarizing stimulation of −50 mV for 2 seconds was recorded. After generated electric current became stable, a test substance dissolved at an intended concentration in extracellular fluid (137 mmol/L NaCl, 4 mmol/L KCl, 1.8 mmol/L CaCl2.2H2O, 1 mmol/L MgCl2.6H2O, 10 mmol/L glucose, 10 mmol/L HEPES (4-(2-hydroxyethyl)-1-piperazineethanesulfonic acid), pH=7.4) was applied to the cell for 10 minutes under room temperature condition. From the obtained IKr, the absolute value of the maximum tail current was measured using analysis software (DataXpress ver. 1, Molecular Devices Corporation) and the value of the electric current in a maintained membrane potential as baseline. Moreover, an inhibition ratio for the maximum tail current prior to the application of the test substance was calculated and then compared with a group of media-application (0.1% dimethylsulfoxide solution) to evaluate influence of the test substance on IKr.

T1 sequence (Q12809 whole entry): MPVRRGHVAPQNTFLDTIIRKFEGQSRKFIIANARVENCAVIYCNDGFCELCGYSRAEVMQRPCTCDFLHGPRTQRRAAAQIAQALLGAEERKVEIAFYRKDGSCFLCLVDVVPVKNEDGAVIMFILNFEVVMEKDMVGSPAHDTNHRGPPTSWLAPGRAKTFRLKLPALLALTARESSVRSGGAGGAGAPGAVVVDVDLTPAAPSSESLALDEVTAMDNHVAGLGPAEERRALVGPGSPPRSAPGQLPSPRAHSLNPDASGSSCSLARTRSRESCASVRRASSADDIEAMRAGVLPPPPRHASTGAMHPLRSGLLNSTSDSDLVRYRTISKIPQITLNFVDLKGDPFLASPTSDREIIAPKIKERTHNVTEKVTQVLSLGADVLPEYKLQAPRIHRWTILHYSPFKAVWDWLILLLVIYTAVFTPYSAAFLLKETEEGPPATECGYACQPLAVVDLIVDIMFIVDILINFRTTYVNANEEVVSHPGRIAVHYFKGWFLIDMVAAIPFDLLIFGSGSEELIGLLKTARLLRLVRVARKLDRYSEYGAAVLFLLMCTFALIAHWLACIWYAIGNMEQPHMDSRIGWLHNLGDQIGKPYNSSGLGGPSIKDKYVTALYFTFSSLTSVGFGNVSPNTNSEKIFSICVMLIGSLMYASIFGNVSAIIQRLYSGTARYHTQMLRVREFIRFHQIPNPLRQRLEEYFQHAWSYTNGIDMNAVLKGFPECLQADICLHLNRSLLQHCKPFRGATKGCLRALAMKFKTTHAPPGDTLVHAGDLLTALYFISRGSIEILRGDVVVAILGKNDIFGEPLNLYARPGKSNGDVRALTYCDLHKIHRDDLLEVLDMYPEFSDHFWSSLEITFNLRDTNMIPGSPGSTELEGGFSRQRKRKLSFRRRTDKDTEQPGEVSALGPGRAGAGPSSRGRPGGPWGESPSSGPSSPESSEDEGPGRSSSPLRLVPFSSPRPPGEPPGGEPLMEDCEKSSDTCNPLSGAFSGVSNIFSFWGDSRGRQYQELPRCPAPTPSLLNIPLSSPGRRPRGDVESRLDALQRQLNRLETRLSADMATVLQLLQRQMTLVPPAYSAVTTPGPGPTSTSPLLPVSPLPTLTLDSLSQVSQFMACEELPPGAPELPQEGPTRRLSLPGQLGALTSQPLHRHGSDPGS

Row | solubility at 16 h [1] | SMILES | hERG inhibition ratio for the maximum tail current (IKr) [2]
1 | > 50 µM | O=C(O)COc1cccc(Nc2ccc3c(n2)N(C(=O)Nc2ccccc2)CCO3)c1 [Compound I-240] | –
2 | – | O=C(O)c1ccccc1Nc1ccc2c(n1)N(C(=O)Nc1ccccc1)CCO2 [Compound I-145] | 15%
